Data as given in patent publication US6344457B1, “Amino acid derivatives inhibiting extracellular matrix metalloproteinase and TNF alpha release” (Chiesi Farmaceutici S.p.A., priority 1997, dated 2002).
Where two headings read alike, the source gives them in different places.

Experiments:
[1] = target: T1, collagenase of the human monocytic stock U937 (Homo sapiens, UniProt P03956); test: Activity on collagenase; assay type: biochemical; conditions: radiomarked collagen, 27° C., 16 hours; read-out: C150 (nM) collagenase
T1 construct: the collagenase of the human monocytic stock U937; endogenous in cells; host or cells: U937 human monocytic cell line
T1 sequence (P03956 100-469): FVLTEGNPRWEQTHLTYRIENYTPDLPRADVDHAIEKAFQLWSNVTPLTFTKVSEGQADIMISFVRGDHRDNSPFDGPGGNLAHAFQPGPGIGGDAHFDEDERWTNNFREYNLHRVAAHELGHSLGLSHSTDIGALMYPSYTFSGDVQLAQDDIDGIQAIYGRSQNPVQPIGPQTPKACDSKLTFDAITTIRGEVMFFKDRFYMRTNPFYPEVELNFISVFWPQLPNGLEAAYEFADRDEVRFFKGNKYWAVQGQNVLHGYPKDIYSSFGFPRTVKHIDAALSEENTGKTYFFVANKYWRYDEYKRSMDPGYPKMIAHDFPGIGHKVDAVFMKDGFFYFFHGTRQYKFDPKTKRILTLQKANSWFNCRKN
Experimental: The collagenase was incubated at 27° C. for 16 hours with radiomarked collagen, and its activity was determined by the release of soluble peptides produced by the enzymatic breakdown of the collagen. The inhibiting concentration C150 for each compound was determined by measurement of the activity of the enzyme in the presence of the inhibitor at a concentration ranging between 10^−7 and 10^−12 M (the inhibitor is dissolved at a concentration of 10^−2 M in DMSO, then diluted successively by tenths in the buffer: Tris, HCl 150 mM, pH 7.5; NaCl 0.15 M; CaCl2 10 mM).

[2] = target: 92 kDa gelatinase of human origin (Homo sapiens, UniProt P14780); test: Activity on gelatinase, radiomarked gelatin; assay type: biochemical; conditions: test performed with radiomarked gelatin; read-out: C150 (nM) gelatinase 92 kDa*
92 kDa gelatinase of human origin, sequence (P14780 94-707): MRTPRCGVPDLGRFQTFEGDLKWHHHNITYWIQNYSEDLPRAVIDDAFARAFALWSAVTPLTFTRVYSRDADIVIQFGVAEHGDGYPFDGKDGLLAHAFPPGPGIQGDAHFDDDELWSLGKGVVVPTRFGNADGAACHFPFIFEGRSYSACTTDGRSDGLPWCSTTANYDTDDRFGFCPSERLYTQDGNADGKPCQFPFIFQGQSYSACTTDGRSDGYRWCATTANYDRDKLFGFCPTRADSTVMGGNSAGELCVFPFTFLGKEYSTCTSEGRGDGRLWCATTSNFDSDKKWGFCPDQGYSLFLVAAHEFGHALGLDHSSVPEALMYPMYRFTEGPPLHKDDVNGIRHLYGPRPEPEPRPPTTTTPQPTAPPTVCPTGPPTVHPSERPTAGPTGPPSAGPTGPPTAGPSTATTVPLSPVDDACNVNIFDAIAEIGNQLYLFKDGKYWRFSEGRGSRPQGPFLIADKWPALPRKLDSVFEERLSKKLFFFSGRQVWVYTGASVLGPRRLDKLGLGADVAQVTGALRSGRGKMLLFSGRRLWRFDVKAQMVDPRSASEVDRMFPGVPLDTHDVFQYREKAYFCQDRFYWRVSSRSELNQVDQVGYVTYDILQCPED
Experimental: The anti-gelatinase activity of the compounds according to the invention also was determined on 92 kDa or 72 kDa gelatinase of human origin, in accordance with the operating mode described by Harris, E. D., Krane, S. M.; (Biochem. Biophys. Acta, 258, 566-576, 1972).
The gelatinase was incubated at 37° C. for 16 hours with radiomarked gelatin, and its activity was determined by the release of the soluble peptides produced by the enzymatic breakdown of the gelatin. The inhibiting concentration C150 for each compound was determined by measurement of the activity of the enzyme in the presence of the inhibitor at a concentration ranging between 10^−7 and 10^−12 M (the inhibitor is dissolved in the same manner as for collagenase).

[3] = Determination of bioavailability (blood levels, ex-vivo bioassay); assay type: in vivo; conditions: mice; for concentration at 10 min / concentration at 20 min / concentration at 40 min / concentration at 1 h / concentration at 24 h: mouse, blood, 50 mg/kg
Experimental: The compounds of this invention were administered i.p. or p.o. between 1 and 50 mg/kg to mice: the blood levels then were determined by an ex-vivo bioassay according to Wang X. et al. (Cancer Res., 54, 4726-4728, 1994). The introduction of an OH group systematically increases the bioavailability of the products.

[4] = system: release of TNF from the peritoneal macrophages of mice stimulated by LPS; test: Inhibition of the production of TNF in vitro; assay type: cell-based; conditions: Peritoneal macrophage; mouse peritoneal macrophages, LPS 100 ng/ml; read-out: C150 (μM) TNF
Experimental: The capacity of the compounds according to this invention to inhibit the release of TNF was determined from the peritoneal macrophages of mice stimulated by LPS (Lang, F., Robert, […], Petit, J. Y., J. Pharmacol. Exp. Ther., 275, 171-176, 1995). After an adhesion phase of 2 hours, the cells were treated for 1 hour with the compound to be tested at concentrations ranging between 10^-6 to 10^-9 M (the inhibitor is dissolved in DMSO at 10^-2 M, then at 5.10^-3 M in RPMI 1640 with 5% SVF, then diluted successively by tenths in the same medium), then stimulated by the addition of LPS (100 ng/ml in final concentration). Three hours later, the biological activity of the TNF in the supernatants was determined by a cytotoxicity test using the murine stock L929 in accordance with the operating procedure described by Band, G., Lin, […]., Evans, C. H. (Bioch. Biophys. Acta, 1134, 309-318, 1982). The pg/ml concentration of the TNF of the samples was determined from a murine αTNF standard curve, thus making it possible to define the inhibiting concentration […] of the compounds studied.

[5] = ip, 50 mg/kg i.p., read-out: blood level, I.p. method, 10′
[6] = ip, 50 mg/kg i.p., read-out: blood level, I.p. method, 20′
[7] = ip, 50 mg/kg i.p., read-out: blood level, I.p. method, 40′
[8] = po, 50 mg/kg p.o., read-out: blood level, P.o. method, 10′
[9] = po, 50 mg/kg p.o., read-out: blood level, P.o. method, 20′
[10] = ip, 50 mg/kg i.p., read-out: blood level, I.p. method, 1 h
[11] = ip, 50 mg/kg i.p., read-out: blood level, I.p. method, 24 h
[12] = po, 50 mg/kg p.o., read-out: blood level, P.o. method, 1 h

Compound	concentration at 10 min [3, 5] [ng/mL]	concentration at 20 min [3, 6] [ng/mL]	concentration at 40 min [3, 7] [ng/mL]	concentration at 10 min [3, 8] [ng/mL]	concentration at 20 min [3, 9] [ng/mL]	concentration at 1 h [3, 12] [ng/mL]	blood level, I.p. method, 10′ ([3]; 50 mg/kg i.p.) [µg/mL]	blood level, I.p. method, 20′ ([3]; 50 mg/kg i.p.) [µg/mL]	blood level, P.o. method, 10′ ([3]; 50 mg/kg p.o.) [µg/mL]	blood level, P.o. method, 20′ ([3]; 50 mg/kg p.o.) [µg/mL]	other results
CC(C)C[C@@](O)(C(=O)N[C@@H](Cc1ccc(Cl)cc1)C(=O)NCC/C(N)=N/O)[C@H](C)C(=O)NO [Example 28, N-2(S)[1(S) hydroxycarbamoyl-1 ethyl]-2(S)hydroxy-4-methylpentanoyl L-4-chlorophenylalanine N-oximino-2-amino-2-ethylamide]											IC50 [1]: 26 nM; IC50 [2]: 1.6 nM
CNC(=O)[C@H](Cc1ccc(OC)cc1)NC(=O)[C@](O)(CC(C)C)[C@H](C)C(=O)NO [drawing 114]	23000	8700		4200	2100	580					concentration at 1 h [3, 10]: 770 ng/mL; concentration at 24 h [3, 11]: < 500 ng/mL; concentration at 24 h ([3]; po, 50 mg/kg p.o., read-out: blood level, P.o. method, 24 h): < 500 ng/mL
CC(C)C[C@@](O)(C(=O)N[C@@H](Cc1ccc(Cl)cc1)C(=O)NCCN1CCOCC1)[C@H](C)C(=O)NO [drawing 115]			18000				30	27	2.3	1.2	blood level, P.o. method, 24 h ([3]; 50 mg/kg p.o.): 0.9 µg/mL
CC(C)C[C@@](O)(C(=O)N[C@@H](Cc1ccc(Cl)cc1)C(=O)NCCN1CCOCC1)[C@H](C)C(=O)NO [drawing 116]						400	87	13	5.1	3.1	blood level, P.o. method, 24 h ([3]; 50 mg/kg p.o.): <0.3 µg/mL; concentration at 1 h [3, 10]: 1700 ng/mL; concentration at 24 h [3, 11]: 300 ng/mL
CC(C)C[C@@](O)(C(=O)N[C@@H](Cc1ccc(Cl)c(Cl)c1)C(=O)NCCN1CCOCC1)[C@H](C)C(=O)NO [drawing 118]							0.7	0.5	0.1	0.1	blood level, I.p. method, 40′ ([3]; 50 mg/kg i.p.): 0.1 µg/mL
CC(C)C[C@@](O)(C(=O)N[C@@H](Cc1ccc(Cl)c(Cl)c1)C(=O)NCCN1CCOCC1)[C@H](C)C(=O)NO [drawing 119]						450	6	5	1.25	0.8	blood level, I.p. method, 40′ ([3]; 50 mg/kg i.p.): 1.8 µg/mL
CNC(=O)[C@@H](NC(=O)[C@H](CC(C)C)[C@H](O)C(=O)NO)C(C)(C)C [reference compound]											IC50 [4]: 0.14 µM
N-2-(S)[(S)-hydroxy-(S)hydroxycarbamoylmethyl)-2(S)-hydroxy-4-methyl]pentanoyl-o-methyl-3-methyl-(S) valine N-methylamide [Example 34]											IC50 [2]: 34 nM

The next lines start with results.

concentration at 10 min [3, 5] [ng/mL]	concentration at 20 min [3, 6] [ng/mL]	concentration at 40 min [3, 7] [ng/mL]	concentration at 10 min [3, 8] [ng/mL]	concentration at 20 min [3, 9] [ng/mL]	concentration at 1 h [3, 12] [ng/mL]	blood level, I.p. method, 10′ ([3]; 50 mg/kg i.p.) [µg/mL]	blood level, I.p. method, 20′ ([3]; 50 mg/kg i.p.) [µg/mL]	blood level, P.o. method, 10′ ([3]; 50 mg/kg p.o.) [µg/mL]	blood level, P.o. method, 20′ ([3]; 50 mg/kg p.o.) [µg/mL]	Compound	other results
200	< 100	< 100	< 100	< 100						CNC(=O)[C@H](Cc1ccc(OC)cc1)NC(=O)[C@H](CC(C)C)[C@H](C)C(=O)NO [drawing 113]	concentration at 40 min ([3]; po, 50 mg/kg p.o., read-out: blood level, P.o. method, 40′): < 100 ng/mL
4500	7800	4400	100	100						CC(C)C[C@@](O)(C(=O)N[C@@H](Cc1ccc(Cl)c(Cl)c1)C(=O)NCCOCCO)[C@H](C)C(=O)NO [drawing 120]	
